Literature values as cited in patent publication US6417349B1, “Water-soluble extract of asiaticoside and madecassoside from Centella asiatica and isolating method thereof” (priority 1997, dated 2002).

Conditions: prior-art components

| solubility in water | Structure (SMILES) |
| --- | --- |
| water-insoluble | C[C@H]1[C@H](C)CC[C@]2(C(=O)O)CC[C@]3(C)C(=CC[C@@H]4[C@@]5(C)C[C@@H](O)[C@H](O)[C@@](C)(CO)[C@@H]5CC[C@]43C)[C@H]12 [asiatic acid] |
| water-insoluble | CC1CCC2(C(=O)O)CCC3(C)C(=CCC4C5(C)CC(O)C(O)C(C)(C)C5C(O)CC43C)C2C1C (stereo not drawn) [madasiatic acid] |
| water-insoluble | C[C@H]1[C@H](C)CC[C@]2(C(=O)O)CC[C@]3(C)C(=CC[C@@H]4[C@@]5(C)C[C@@H](O)[C@H](O)[C@@](C)(CO)[C@@H]5[C@H](O)C[C@]43C)[C@H]12 [madecassic acid] |
